The text below walks through data of patent publication US9125835B2, “Synergistic combinations to reduce particle dose for targeted treatment of cancer and its metastases” (priority 2010, dated 2015).

Data set [1] can be described thus: In vivo CPT plasma concentrations after single IV injection. The conditions noted are these: IV injection of free CPT (2 mg/kg). The procedure: Values are reported as mean ±SD.
(§1) This was determined by preparing PEGylated 6 μm polystyrene MPs with three copies of the norvaline (Nva) α-amino acid prodrug of CPT. […] Anti-cancer efficacy was evaluated in an orthotopic rat lung cancer model and compared to a bolus injection of CPT.

In the next data set the test system is A549 cell. The experiment in a line: Anti-cancer efficacy in orthotopic rat lung cancer model (A549 cell inoculation). Type of data set: in vivo, nude rats. The conditions noted are these: IV every 3 days for 27 days; free CPT 2 mg/kg, CPT-Nva-MPs 0.2 mg/kg CPT. The procedure:
as §1
The treatment was conducted every 3 days for 27 days. The day after the last treatment, all animals were euthanized, and organs (lung, heart, […], spleen and […]) were dissected and weighed. The organs were fixed in 10% neutral buffered formalin for H & E staining.

The test system of the next data set is caspase 3/7. The conditions noted are these: A549 cells, 24 hours; 1 μM paclitaxel alone or with 1 mM R-ALA.

Protocol for caspase 3/7: Cell viability (FIG. 11—left) and caspase 3/7 activation (apoptosis) (FIG. 11—right) of A549 cells were evaluated in response to a low dose (˜EC5-EC20) of paclitaxel alone (1 μM), low dose paclitaxel +R-ALA (1 mM) or a solvent control (0.1% DMSO). Cell viability was determined with AlamarBlue® assay. Caspase 3/7 activation was determined as a measure of apoptosis using a fluorometric assay kit (Biovision, Mountain View, Calif.). A549 cells were treated with solvent control (0.1% DMSO), 1 μM paclitaxel, and 1 μM paclitaxel+1 mM R-ALA for 24 hours.

With `CC[C@@]1(O)C(=O)OCc2c1cc1n(c2=O)Cc2cc3ccccc3nc2-1` [free CPT, camptothecin], the “systemic exposure (CPT plasma)” value in data set [1] is “high but short-lived systemic exposures”. The “areas of lung cancer versus untreated animals” value in the data set with A549 cell is given as “smaller areas of lung cancer”.

Take `CC(=O)O[C@H]1C(=O)[C@@]2(C)[C@H]([C@H](OC(=O)c3ccccc3)[C@]3(O)C[C@H](OC(=O)[C@H](O)[C@@H](NC(=O)c4ccccc4)c4ccccc4)C(C)=C1C3(C)C)[C@]1(OC(C)=O)CO[C@@H]1C[C@@H]2O` [paclitaxel]: in the data set on caspase 3/7, the “caspase 3/7 activation relative to controls” value is 1.5 fold.
